Columns and labels:
Assay type in all cases: in vivo
[1] = test system: giant foxtail (Setaria faberi); assay: Test A pre/postemergence
How it was run: (§1)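 Ratings: 0 = no effect, 100 = complete control, assessed visually about ten days post-treatment in a greenhouse. Applications: soil-directed preemergence spray and postemergence spray on 1- to 2-leaf plants, both using a surfactant-containing non-phytotoxic solvent formulation.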

[2] = test system: redroot pigweed (Amaranthus retroflexus); assay: Test A pre/postemergence
How it was run: as §1

[3] = test system: crabgrass (Digitaria sanguinalis); assay: Test A pre/postemergence
How it was run: as §1

[4] = test system: morningglory (Ipomoea spp.); assay: Test A pre/postemergence
How it was run: as §1

[5] = test system: velvetleaf (Abutilon theophrasti); assay: Test A pre/postemergence
How it was run: as §1

[6] = test system: barnyardgrass (Echinochloa crus-galli); assay: Test A pre/postemergence
How it was run: as §1

[7] = test system: rice flatsedge (Cyperus iria); assay: Test E flooded paddy water application; conditions: Flood, 21 days, scale 0 to 100 (0 no effect, 100 complete control)
How it was run: (§2)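 Weeds sown in sterilized Tama silt loam (2.6% organic matter), greenhouse 29.5/26.7° C, 16-h photoperiod; at 2.0–2.5-leaf stage pots flooded to 3 cm and compound added to paddy water. Visual rating vs untreated controls after 21 days, 0 (no effect) to 100 (complete control).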

[8] = test system: purple redstem (Ammannia coccinea); assay: Test E flooded paddy water application; conditions: Flood, 21 days, scale 0 to 100 (0 no effect, 100 complete control)
How it was run: as §2

[9] = test system: ducksalad (Heteranthera limosa); assay: Test E flooded paddy water application; conditions: Flood, 21 days, scale 0 to 100 (0 no effect, 100 complete control)
How it was run: as §2

[10] = test system: barnyardgrass (Echinochloa crus-galli); assay: Test E flooded paddy water application; conditions: Flood, 21 days, scale 0 to 100 (0 no effect, 100 complete control)
How it was run: as §2

[11] = test system: early watergrass (Echinochloa oryzoides); assay: Test E flooded paddy water application; conditions: Flood, 21 days, scale 0 to 100 (0 no effect, 100 complete control)
How it was run: as §2

[12] = test system: late watergrass (Echinochloa oryzicola); assay: Test E flooded paddy water application; conditions: Flood, 21 days, scale 0 to 100 (0 no effect, 100 complete control)
How it was run: as §2

[13] = test system: bearded (brdd.) sprangletop (Leptochloa fusca ssp. fascicularis); assay: Test E flooded paddy water application; conditions: Flood, 21 days, scale 0 to 100 (0 no effect, 100 complete control)
How it was run: as §2

[14] = test system: smallflower umbrella sedge (Cyperus difformis); assay: Test E flooded paddy water application; conditions: Flood, 21 days, scale 0 to 100 (0 no effect, 100 complete control)
How it was run: as §2

[15] = test system: junglerice (Echinochloa colona); assay: Test E flooded paddy water application; conditions: Flood, 21 days, scale 0 to 100 (0 no effect, 100 complete control)
How it was run: as §2

[16] = test system: transplanted rice seedlings (Oryza sativa cv. ‘Japonica-M202’); assay: Test E flooded paddy water application; conditions: Flood, 21 days, scale 0 to 100 (0 no effect, 100 complete control)
How it was run: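 Response scored visually on a 0–100 scale (100 = complete control) at 21 days against untreated pots. Treatment was into paddy water 3 cm deep over silt loam, with plants at the 2.0–2.5-leaf stage, grown under 16-h light at 29.5/26.7 °C day/night.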

[17] = test system: water seeded rice seedlings (Oryza sativa cv. ‘Japonica-M202’); assay: Test E flooded paddy water application; conditions: Flood, 21 days, scale 0 to 100 (0 no effect, 100 complete control)
How it was run: as §2

[18] = Postemergence, 125 g ai/ha, 0 to 100 scale (0 no effect, 100 complete control)
[19] = Postemergence, 500 g ai/ha, 0 to 100 scale (0 no effect, 100 complete control)
[20] = Preemergence, 125 g ai/ha, 0 to 100 scale where 0 is no effect and 100 is complete control, approximately ten days
[21] = Preemergence, 500 g ai/ha, 0 to 100 scale where 0 is no effect and 100 is complete control, approximately ten days

SMILES: CCOC(=O)c1nc(-c2ccc(Cl)c(Cl)c2)nc(N)c1Br [Compound 66]
- Plant response rating, Foxtail, Giant [1, 18]: 0
- Plant response rating, Foxtail, Giant [1, 19]: 0
- Plant response rating, Foxtail, Giant [1, 20]: 0
- Plant response rating, Foxtail, Giant [1, 21]: 0
- Plant response rating, Pigweed [2, 18]: 50
- Plant response rating, Pigweed [2, 19]: 65
- Plant response rating, Pigweed [2, 20]: 0
- Plant response rating, Pigweed [2, 21]: 10
- Plant response rating, Crabgrass [3, 18]: 0
- Plant response rating, Crabgrass [3, 19]: 0
- Plant response rating, Crabgrass [3, 20]: 0
- Plant response rating, Crabgrass [3, 21]: 15
- Plant response rating, Morningglory [4, 18]: 20
- Plant response rating, Morningglory [4, 19]: 30
- Plant response rating, Morningglory [4, 20]: 0
- Plant response rating, Morningglory [4, 21]: 0
- Plant response rating, Velvetleaf [5, 18]: 50
- Plant response rating, Velvetleaf [5, 19]: 75
- Plant response rating, Velvetleaf [5, 20]: 0
- Plant response rating, Velvetleaf [5, 21]: 35
- Plant response rating, Barnyardgrass [6, 18]: 0
- Plant response rating, Barnyardgrass [6, 19]: 0
- Plant response rating, Barnyardgrass [6, 20]: 0
- Plant response rating, Barnyardgrass [6, 21]: 0
- Flatsedge, Rice plant response rating ([7]; 32 g ai/ha): 0
- Flatsedge, Rice plant response rating ([7]; 64 g ai/ha): 0
- Flatsedge, Rice plant response rating ([7]; 125 g ai/ha): 0
- Flatsedge, Rice plant response rating ([7]; 250 g ai/ha): 0
- Plant response rating, Flatsedge, Rice ([7]; 16 g ai/ha): 0
- Redstem plant response rating ([8]; 32 g ai/ha): 0
- Redstem plant response rating ([8]; 64 g ai/ha): 0
- Redstem plant response rating ([8]; 125 g ai/ha): 40
- Redstem plant response rating ([8]; 250 g ai/ha): 100
- Plant response rating, Redstem ([8]; 16 g ai/ha): 0
- Ducksalad plant response rating ([9]; 32 g ai/ha): 100
- Ducksalad plant response rating ([9]; 64 g ai/ha): 100
- Ducksalad plant response rating ([9]; 125 g ai/ha): 100
- Ducksalad plant response rating ([9]; 250 g ai/ha): 100
- Plant response rating, Ducksalad ([9]; 16 g ai/ha): 95
- Barnyardgrass plant response rating ([10]; 32 g ai/ha): 0
- Barnyardgrass plant response rating ([10]; 125 g ai/ha): 0
- Barnyardgrass plant response rating ([10]; 250 g ai/ha): 35
- Plant response rating, Barnyardgrass ([10]; 16 g ai/ha): 0
- Watergrass, Early plant response rating ([11]; 32 g ai/ha): 0
- Watergrass, Early plant response rating ([11]; 64 g ai/ha): 0
- Watergrass, Early plant response rating ([11]; 125 g ai/ha): 0
- Watergrass, Early plant response rating ([11]; 250 g ai/ha): 0
- Plant response rating, Watergrass, Early ([11]; 16 g ai/ha): 0
- Watergrass, Late plant response rating ([12]; 32 g ai/ha): 0
- Watergrass, Late plant response rating ([12]; 64 g ai/ha): 0
- Watergrass, Late plant response rating ([12]; 125 g ai/ha): 0
- Watergrass, Late plant response rating ([12]; 250 g ai/ha): 0
- Plant response rating, Watergrass, Late ([12]; 16 g ai/ha): 0
- Sprangletop, Brdd. plant response rating ([13]; 32 g ai/ha): 0
- Sprangletop, Brdd. plant response rating ([13]; 64 g ai/ha): 0
- Sprangletop, Brdd. plant response rating ([13]; 125 g ai/ha): 0
- Sprangletop, Brdd. plant response rating ([13]; 250 g ai/ha): 0
- Plant response rating, Sprangletop, Brdd. ([13]; 16 g ai/ha): 0
- Sedge, Umbrella plant response rating ([14]; 32 g ai/ha): 0
- Sedge, Umbrella plant response rating ([14]; 64 g ai/ha): 0
- Sedge, Umbrella plant response rating ([14]; 125 g ai/ha): 0
- Sedge, Umbrella plant response rating ([14]; 250 g ai/ha): 0
- Plant response rating, Sedge, Umbrella ([14]; 16 g ai/ha): 0
- Junglerice plant response rating ([15]; 32 g ai/ha): 0
- Junglerice plant response rating ([15]; 64 g ai/ha): 0
- Junglerice plant response rating ([15]; 125 g ai/ha): 0
- Junglerice plant response rating ([15]; 250 g ai/ha): 0
- Plant response rating, Junglerice ([15]; 16 g ai/ha): 0
- Rice, Transplanted plant response rating ([16]; 32 g ai/ha): 0
- Rice, Transplanted plant response rating ([16]; 64 g ai/ha): 0
- Rice, Transplanted plant response rating ([16]; 125 g ai/ha): 0
- Rice, Transplanted plant response rating ([16]; 250 g ai/ha): 0
- Plant response rating, Rice, Transplanted ([16]; 16 g ai/ha): 0
- Rice, Water Seeded plant response rating ([17]; 32 g ai/ha): 0
- Rice, Water Seeded plant response rating ([17]; 64 g ai/ha): 0
- Rice, Water Seeded plant response rating ([17]; 125 g ai/ha): 0
- Rice, Water Seeded plant response rating ([17]; 250 g ai/ha): 0
- Plant response rating, Rice, Water Seeded ([17]; 16 g ai/ha): 0

— patent US8802597B2, “Herbicidal pyrimidines” (E I du Pont de Nemours and Company, priority 2003, dated 2014)
